# US8524876B2, “RNAi molecule targeting thymidylate synthase and application thereof” (Delta-Fly Pharma, Inc., priority 2009, dated 2013)
# System: TS mRNA
# Test: Inhibition of TS expression by siRNA in DLD-1/5FU cells, Taqman real-time PCR
# Assay type: cell-based, human
# Conditions: 72 hours after transfection; for effects of inhibiting TS expression (in words): siRNA 25 nM
# Experimental: The DLD-1/5FU human colorectal cancer cell lines (Int. J. Oncol., 2000; 17: 277-83) that had been resported to be resistant to 5-FU were cultured in a 6-cm culture dish for 24 hours until the cells reached 50% to 60% confluence.
# Subsequently, siRNA molecules (i.e., TS-siRNA1 molecules (sense strand: SEQ ID NO: 1; antisense strand: SEQ ID NO: 2), TS-siRNA2 molecules (sense strand: SEQ ID NO: 3; antisense strand: SEQ ID NO: 4), and TS-siRNA3 molecules (sense strand: SEQ ID NO: 5; antisense strand: SEQ ID NO: 6)) were chemically synthesized, and 2.5 ml of a solution containing each of the above siRNA molecules (final concentration: 25 nM) and 25 μl of TransIT-TKO Transfection Reagent (Minis) was transfected into the above cells in accordance with a conventional technique. Scrambled siRNA (TS-Scra1) was used as a negative control.
# The effects of siRNA molecules on inhibition of TS expression were inspected via Taqman real-time PCR (ABI PRISM 7700 Sequence Detection System; Applied Biosystems) 72 hours after transfection. The Assays-on-Demand Gene Expression Assay Mix (assay ID Hs00426591_ml; PCR product size: 87 bp; Applied Biosystems) was used for TS primers and probes. GAPDH was used as the internal standard (Assays-on-Demand Gene Expression System; assay ID: Hs99999905_ml; PCR product size: 122 bp; Applied Biosystems).
Substance,effects of inhibiting TS expression (in words),"effects on inhibition of TS expression (siRNA final concentration 25 nM, GAPDH internal standard) [%]"
"TS-siRNA2: chemically synthesized siRNA targeting TS; sense strand SEQ ID NO: 3, antisense strand SEQ ID NO: 4 (sense GAAUACAGAGAUAUGGAAU; antisense AUUCCAUAUCUCUGUAUUC; listed as RNA, chemistry not given here)",exhibited effects of inhibiting TS expression,–
"TS-siRNA3: chemically synthesized siRNA targeting TS; sense strand SEQ ID NO: 5, antisense strand SEQ ID NO: 6 (sense CGAUCAUGAUGUAGAGUGU; antisense ACACUCUACAUCAUGAUCG; listed as RNA, chemistry not given here)",exhibited effects of inhibiting TS expression,–
"TS-siRNA1: chemically synthesized siRNA targeting TS; sense strand SEQ ID NO: 1, antisense strand SEQ ID NO: 2 (sense GUAACACCAUCGAUCAUGA; antisense UCAUGAUCGAUGGUGUUAC; listed as RNA, chemistry not given here)",–,83.5±1.3
